Read-outs that look alike come from different tables or passages of the source.
Key:
[1] = molecular target: T1, recombinant Btk kinase enzyme (Homo sapiens, UniProt Q06187); test: In vitro inhibition of Btk kinase activity (ADP-Glo); assay type: biochemical; conditions: read-out: IC50 kinase BTK
T1 construct: purchased SignalChem B10-10H
In short: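 IC50 obtained by four-parameter logistic fitting of ADP-Glo luminescence, which reports ADP generated by the kinase. Reaction: recombinant Btk enzyme, 50 μM ATP, 0.5 mg/mL Poly(4:1 Glu,Tyr) peptide, incubated 180 minutes at 37° C. with test compound.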

[2] = molecular target: T2, EGFR (Homo sapiens, UniProt P00533); test: In vitro kinase panel: EGFR; assay type: biochemical; conditions: Table 9 kinase panel
T2 construct: purchased SignalChem E10-11G
Procedure: (§1) The measurements were carried out in a 25 μL reaction volume using a 96-well plate (Corning, #3642). The kinase enzyme and inhibitor were pre-incubated for 10 minutes in the reaction buffer containing 25 mM of MOPS (pH 7.2), 12.5 mM of 0-glycerophosphate, 27 mM of MgCl2, 2 mM of MnCl2, 5 mM of EGTA, 2 mM of EDTA, 0.3 mM of DTT, and 1.2 mg/mL of bovine serum albumin. Staurosporine (Abcam Biochemicals, ab146588) was used as a reference inhibitor and 0.1% DMSO in the reaction buffer—as a negative control. The solution of 0.5 mg/mL peptide substrate and 50 &M ATP in the same buffer were added; the solution was incubated for 180 minutes at 37° C. To detect the amount of ATP taken up during the kinase reaction, the equivalent amount of ADP (from the ADP Glo Detection Kit (Promega, #V9101)) was used according to the protocol. The reaction mixture was equilibrated to room temperature. 25 µL of ADP-Glo Reagent were added into each well; the plate was incubated for 40 minutes. 50 μL of Kinase Detection Reagent were added; the plate was incubated for 30 minutes. The luminescence was measured with multimode plate reader (Tecan Infinite M200Pro, Switzerland). IC50 values were calculated using Magellan 7.2 software (Tecan, Switzerland) approximating experimental points by four-parameter logistic model with the optimization by Levenberg-Marquardt.
(§2) For active compounds selected by screening using the target enzyme BTK, the values of IC50 were determined on a kinase panel: EGFR (SignalChem, #E10-11G), ITK (SignalChem, #I13-10G) and TEC (SignalChem, #T03-10G).

[3] = test system: Mino (mantle cell lymphoma); test: Antiproliferative activity, Mino cells (Alamar Blue); assay type: cell-based; conditions: Homo sapiens
In short: (§3)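 IC50 values come from a four-parameter logistic fit of Alamar Blue fluorescence (540 nm excitation, 590 nm emission) read 14-16 h after reagent addition. Before that, the lymphoma lines, about 3*10^4 cells per well in 10% FBS RPMI-1640, were incubated with compound for 72 h at 37 °C, keeping final DMSO below 1%.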

[4] = test system: Z-138 (mantle cell lymphoma); test: Antiproliferative activity, Z-138 cells (Alamar Blue); assay type: cell-based; conditions: Homo sapiens
In short: as §3

[5] = molecular target: T3, TEC (Homo sapiens, UniProt P42680); test: In vitro kinase panel: TEC; assay type: biochemical; conditions: Table 9 kinase panel
T3 construct: purchased SignalChem T03-10G
T3 sequence (P42680 1-631): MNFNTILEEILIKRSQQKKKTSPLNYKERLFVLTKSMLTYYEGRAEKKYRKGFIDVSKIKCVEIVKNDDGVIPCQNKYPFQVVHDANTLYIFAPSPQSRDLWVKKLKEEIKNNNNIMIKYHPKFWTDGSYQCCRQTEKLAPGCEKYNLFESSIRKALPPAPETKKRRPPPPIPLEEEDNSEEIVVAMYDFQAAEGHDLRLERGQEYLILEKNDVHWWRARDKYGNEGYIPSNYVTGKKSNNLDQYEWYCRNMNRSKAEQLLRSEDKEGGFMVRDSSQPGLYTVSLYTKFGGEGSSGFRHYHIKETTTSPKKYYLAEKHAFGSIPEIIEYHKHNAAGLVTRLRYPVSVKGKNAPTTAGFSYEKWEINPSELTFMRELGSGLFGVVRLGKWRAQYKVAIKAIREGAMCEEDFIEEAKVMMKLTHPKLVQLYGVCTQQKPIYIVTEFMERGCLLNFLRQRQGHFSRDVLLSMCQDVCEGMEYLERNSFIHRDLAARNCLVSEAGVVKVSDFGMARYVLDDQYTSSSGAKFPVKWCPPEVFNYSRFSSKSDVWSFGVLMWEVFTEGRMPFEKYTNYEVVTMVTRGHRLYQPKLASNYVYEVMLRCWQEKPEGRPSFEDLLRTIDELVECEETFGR
Procedure: as §1, §2

[6] = test system: DOHH2 (follicular lymphoma); test: Antiproliferative activity, DOHH2 cells (Alamar Blue); assay type: cell-based; conditions: Homo sapiens, DOHH-2, Table 10, 72 h, average of several tests
In short: as §3

[7] = Table 10, 72 h, average of several tests

T2 sequence (P00533 672-1210 limits assumed): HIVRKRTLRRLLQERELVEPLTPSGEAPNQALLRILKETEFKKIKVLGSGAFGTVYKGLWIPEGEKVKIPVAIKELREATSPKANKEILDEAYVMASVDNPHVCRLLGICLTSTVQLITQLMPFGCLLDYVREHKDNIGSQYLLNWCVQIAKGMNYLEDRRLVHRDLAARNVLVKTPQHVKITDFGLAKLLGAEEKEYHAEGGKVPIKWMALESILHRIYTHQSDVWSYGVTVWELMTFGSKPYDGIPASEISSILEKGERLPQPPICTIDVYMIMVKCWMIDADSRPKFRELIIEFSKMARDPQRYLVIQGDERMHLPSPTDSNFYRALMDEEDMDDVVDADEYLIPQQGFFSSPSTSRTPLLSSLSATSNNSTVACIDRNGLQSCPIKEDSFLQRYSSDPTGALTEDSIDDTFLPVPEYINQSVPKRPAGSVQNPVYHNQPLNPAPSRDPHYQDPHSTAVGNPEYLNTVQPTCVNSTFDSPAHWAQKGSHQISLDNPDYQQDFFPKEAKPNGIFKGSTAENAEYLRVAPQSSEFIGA
T1 sequence (Q06187 whole entry): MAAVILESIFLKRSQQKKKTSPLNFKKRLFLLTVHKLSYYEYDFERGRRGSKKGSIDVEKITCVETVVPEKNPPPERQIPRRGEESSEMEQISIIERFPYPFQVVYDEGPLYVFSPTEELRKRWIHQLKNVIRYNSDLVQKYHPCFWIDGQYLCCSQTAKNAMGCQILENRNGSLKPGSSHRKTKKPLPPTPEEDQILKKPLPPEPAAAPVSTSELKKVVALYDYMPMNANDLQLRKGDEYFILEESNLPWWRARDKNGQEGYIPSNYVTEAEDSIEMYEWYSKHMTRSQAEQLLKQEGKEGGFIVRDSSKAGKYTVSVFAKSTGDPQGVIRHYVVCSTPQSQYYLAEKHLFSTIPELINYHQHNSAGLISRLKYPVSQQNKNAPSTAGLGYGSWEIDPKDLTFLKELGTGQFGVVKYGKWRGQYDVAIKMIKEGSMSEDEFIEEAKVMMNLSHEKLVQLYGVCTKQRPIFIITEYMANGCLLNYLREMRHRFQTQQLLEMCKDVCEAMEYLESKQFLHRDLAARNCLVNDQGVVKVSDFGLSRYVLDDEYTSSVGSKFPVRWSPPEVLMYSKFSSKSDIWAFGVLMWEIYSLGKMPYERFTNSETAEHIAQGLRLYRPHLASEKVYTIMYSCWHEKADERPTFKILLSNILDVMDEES

Compound	IC50 ([1]; Table 9 kinase panel) [µM]	IC50 [2] [µM]	IC50 ([3]; Table 11, 72 h) [µM]	IC50 ([4]; Table 11, 72 h) [µM]	IC50 ([1]; Table 8, ADP-Glo) [µM]	IC50 [5] [µM]	IC50 [3, 7] [µM]	IC50 [4, 7] [µM]	IC50 [6] [µM]
C=CC(=O)N1CCC[C@@H](n2nc(-c3ccc(Oc4ccncc4)cc3)c3cncc(Cl)c32)C1 [BCD-BTK-125, (R)-1-(1-acryloylpiperidin-3-yl)-7-chloro-3-(4-(pyridin-4-yloxy)phenyl)-1H-pyrazolo[4,3-c]pyridine]	0.109	> 1	7.3	14.6					
C=CC(=O)N1CCC[C@@H](n2nc(-c3ccc(Oc4ccncc4)cc3)c3c(N)ncc(Cl)c32)C1 [BCD-BTK-139, (R)-1-(1-acryloylpiperidin-3-yl)-7-chloro-3-(4-(pyridin-4-yloxy)phenyl)-1H-pyrazolo[4,3-c]pyridin-4-amine]	0.00085	0.0488	10.2	21.1					
C=CC(=O)N1CCC[C@@H](n2nc(-c3ccc(C(=O)Nc4ccccn4)cc3)c3cncc(Cl)c32)C1 [BCD-BTK-201]		0.172			0.0191	0.0552	11.9	6.54	7.97
C=CC(=O)N1CCC[C@@H](n2nc(-c3ccc(Oc4ccncc4C#N)cc3)c3cncc(Cl)c32)C1 [BCD-BTK-202, (R)-4-(4-(1-(1-acryloylpiperidin-3-yl)-7-chloro-1H-pyrazolo[4,3-c]pyridin-3-yl)phenoxy)nicotinonitrile]		> 0.5			0.0746	> 0.5	7.79	12.6	8.87
C=CC(=O)N1CCC[C@@H](n2nc(-c3ccc(Oc4cccnc4C(N)=O)cc3)c3cncc(Cl)c32)C1 [BCD-BTK-220, 3-(4-{7-chloro-1-[(3R)-1-(prop-2-enoyl)piperidin-3-yl]-1H-pyrazolo[4,3-c]pyridin-3-yl}phenoxy)pyridine-2-carboxamide]		0.82			0.0535	> 0.1	10.5	14.2	9.46
C=CC(=O)N1CCC[C@@H](n2nc(-c3ccc(Oc4cccnc4C#N)cc3)c3cncc(F)c32)C1 [BCD-BTK-230, (R)-3-(4-(1-(1-acryloylpiperidin-3-yl)-7-fluoro-1H-pyrazolo[4,3-c]pyridin-3-yl)phenoxy)picolinonitrile]		> 0.5			0.0105	> 0.2	9.81	14.4	14.9
C=CC(=O)N1CCC[C@@H](n2nc(-c3ccc(C(=O)Nc4ccccn4)cc3)c3c(N)ncc(C#N)c32)C1 [BCD-BTK-234, (R)-4-(1-(1-acryloylpiperidin-3-yl)-4-amino-7-cyano-1H-pyrazolo[4,3-c]pyridin-3-yl)-N-(pyridine-2-yl)benzamide]		0.0018			0.00117	0.0148	9.6	16.8	8.87
C=CC(=O)N1CCC[C@@H](n2nc(-c3ccc(Oc4ccncc4)cc3)c3c(N)ncc(OC)c32)C1 [BCD-BTK-239, (R)-1-(1-acryloylpiperidin-3-yl)-4-amine-7-methoxy-3-(4-(pyridin-4-yloxy)phenyl)-1H-pyrazolo[4,3-c]pyridine]		0.0105			0.00238	0.006	14.2	16	8.18
C=CC(=O)N1CCC[C@@H](n2nc(-c3ccc(C(=O)Nc4ccccn4)cc3)c3c(N)ncc(OC)c32)C1 [BCD-BTK-240, (R)-4-(1-(1-acryloylpiperidin-3-yl)-4-amino-7-methoxy-1H-pyrazolo[4,3-c]pyridin-3-yl)-N-(pyridin-2-yl)benzamide]		0.00241			0.00225	0.00381	14.1	10.5	2
C=CC(=O)N1CCC[C@@H](n2nc(-c3ccc(C(=O)Nc4ccccn4)cc3)c3c(N)nccc32)C1 [BCD-BTK-242, (R)-4-(1-(1-acryloylpiperidin-3-yl)-4-amino-1H-pyrazolo[4,3-c]pyridin-3-yl)-N-(pyridin-2-yl)benzamide]		0.00132			0.00177	0.00661	17.3	16.5	8.38
C=CC(=O)N1CCC[C@@H](n2nc(-c3ccc(C(=O)Nc4cc(C(F)(F)F)ccn4)cc3)c3c(N)ncc(Cl)c32)C1 [BCD-BTK-251, (R)-4-(1-(1-acryloylpiperidin-3-yl)-4-amino-7-chloro-1H-pyrazolo[4,3-c]pyridin-3-yl)-N-(4-(trifluoromethyl)pyridin-2-yl)benzamide]		0.00883			0.00271	0.00721	3.65	4.46	3.38
C=CC(=O)N1CCC[C@@H](n2nc(-c3ccc(C(=O)Nc4cc(C(F)(F)CCC)ccn4)cc3)c3cncc(Cl)c32)C1 [BCD-BTK-252, (R)-4-(1-(1-acryloylpiperidin-3-yl)-7-chloro-1H-pyrazolo[4,3-c]pyridin-3-yl)-N-(4-(1,1-difluorobutyl)pyridin-2-yl)benzamide]		> 0.5			0.0146	> 0.1	4.46	14.9	19.6
C=CC(=O)N1CCC[C@@H](n2nc(-c3ccc(C(=O)Nc4ncccc4F)cc3)c3c(N)ncc(C#N)c32)C1 [BCD-BTK-258, 4-{4-amino-7-cyano-1-[(3R)-1-(prop-2-enoyl)piperidin-3-yl]-1H-pyrazolo[4,3-c]pyridin-3-yl}-N-(3-fluoropyridin-2-yl)benzamide]		0.0186			0.00117	0.00292	17.3	35.8	15.1
C=CC(=O)N1CCC[C@@H](n2nc(-c3cnc(C(=O)Nc4cc(C(F)(F)CCC)ccn4)nc3)c3cncc(Cl)c32)C1 [BCD-BTK-292, (R)-5-(1-(1-acryloylpiperidin-3-yl)-7-chloro-1H-pyrazolo[4,3-c]pyridin-3-yl)-N-(4-(1,1-difluorobutyl)pyridin-2-yl)pyrimidine-2-carboxamide]		> 0.5			0.00734	0.0778	3.35	> 50	20.7

— US20190352276A1, “INHIBITORS OF BRUTON'S TYROSINE KINASE” (Joint Stock Company "Biocad", priority 2016, published 2019)
